Source: patent US20160024114A1, “MACROCYCLIC RIP2 KINASE INHIBITORS” (ONCODESIGN S.A, priority 2013, published 2016)

Molecular target: RIP2 recombinant protein (Homo sapiens, UniProt O43353)
Test: radiometric protein kinase assay (33PanQinase Activity Assay), in vitro peptide-based kinase assay
Type: biochemical
Settings: for remaining activity at 0.1 µM / remaining activity at 1 µM: 1 h; for remaining activity at 0.1 µM: compound at 0.1 μM; for remaining activity at 1 µM: compound at 1 μM; for IC50: ATP 3.0 μM, RIP2 15.7 nM, substrate RBER-Chktide
Procedure: The inhibition of RIP2 kinase was assessed using RIP2 recombinant protein in an in vitro peptide-based kinase assay.
A radiometric protein kinase assay (^33PanQinase® (^33PanQinase Activity Assay) is used for measuring the kinase activity. All assays are performed in 96-well FlashPlates™ from Perkin Elmer in a 50 μl reaction volume. The reaction cocktail is pipetted in 4 steps in the following order:
10 μl of non-radioactive ATP solution (in H2O)
25 μl of assay buffer/[γ-^33P]-ATP mixture
5 μl of test sample in 10% DMSO
10 μl of enzyme/substrate mixture
The assay for RIP2 contains 70 mM HEPES-NaOH pH 7.5, 3 mM MgCl2, 3 mM MnCl2, 3 μM Na-orthovanadate, 1.2 mM DTT, 50 μg/ml PEG20000, ATP (3.0 μM), [γ-^33P]-ATP (approx. 5×10^05 cpm per well), protein kinase RIP2 (15.7 nM) and substrate (RBER-Chktide), 2.0 μg/50 μl). The reaction cocktails were incubated at 30° C. for 60 minutes. The reaction was stopped with 50 μl of 2% (v/v) H3PO4, plates were aspirated and washed two times with 200 μl 0.9% (w/v) NaCl. Incorporation of ^33Pi (counting of “cpm”) was determined with a microplate scintillation counter.
The compounds are dissolved to 10 mM in DMSO. Where needed, solutions are sonicated in a bath sonicator.
Table 4 provides the pIC50 values and % Remaining activity values at two concentrations (1 μM and 0.1 μM) of the compounds according to the invention, obtained using the above mentioned kinase assay.

RIP2 recombinant protein, sequence (O43353 whole entry): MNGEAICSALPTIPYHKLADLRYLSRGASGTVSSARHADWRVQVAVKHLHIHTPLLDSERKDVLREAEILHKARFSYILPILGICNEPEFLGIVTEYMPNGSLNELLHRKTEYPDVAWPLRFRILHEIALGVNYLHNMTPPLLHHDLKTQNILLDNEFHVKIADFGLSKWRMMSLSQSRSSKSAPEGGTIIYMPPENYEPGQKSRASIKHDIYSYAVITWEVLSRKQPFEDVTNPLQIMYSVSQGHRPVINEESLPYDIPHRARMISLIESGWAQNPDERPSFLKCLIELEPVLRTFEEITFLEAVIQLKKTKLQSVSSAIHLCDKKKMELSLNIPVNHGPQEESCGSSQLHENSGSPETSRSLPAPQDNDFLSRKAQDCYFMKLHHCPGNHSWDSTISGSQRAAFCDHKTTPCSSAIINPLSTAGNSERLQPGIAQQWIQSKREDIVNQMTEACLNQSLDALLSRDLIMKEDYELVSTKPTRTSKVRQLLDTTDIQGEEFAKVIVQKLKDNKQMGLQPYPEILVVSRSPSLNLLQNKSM

## COCCC(=O)N1CCCN(C)c2cccc(c2)-c2cnn3ccc(nc23)NCC1 [Compound B19]
  remaining activity at 0.1 µM: < 50%
  remaining activity at 1 µM: < 50%

## NC(=O)c1ccc2cc1OCC(=O)NCCCNc1ccn3ncc-2c3n1 [Compound B21]
  remaining activity at 0.1 µM: < 50%
  remaining activity at 1 µM: < 50%
  IC50: < 100 nM

## O=C(CN1CCOCC1)N1CCNc2ccn3ncc(c3n2)-c2cccc(c2)OCC1 [Compound B36]
  remaining activity at 0.1 µM: < 50%
  remaining activity at 1 µM: < 50%
  IC50: < 100 nM

## CN(C)CCN1CCN(C(=O)C2CC2)CCOc2cccc(c2)-c2cnn3ccc1nc23 [Compound B48]
  remaining activity at 0.1 µM: < 50%
  remaining activity at 1 µM: < 50%
  IC50: < 100 nM

## O=C1CCNc2ccn3ncc(c3n2)-c2cc(F)cc(c2)OCCN1 [Compound B74]
  remaining activity at 0.1 µM: < 50%
  remaining activity at 1 µM: < 50%
  IC50: 100 to 1000 nM

## CN1CCN(C(=O)C2CC2)CCNc2ccn3ncc(c3n2)-c2cccc(c2)C1 [Compound B76]
  remaining activity at 0.1 µM: > 50%
  remaining activity at 1 µM: < 50%
  IC50: 100 to 1000 nM

## CCCCN1CCNc2ccn3ncc(c3n2)-c2cc(F)cc(c2)OCC1 [Compound F81]
  remaining activity at 0.1 µM: < 50%
  remaining activity at 1 µM: < 50%
  IC50: < 100 nM

## Fc1cc2cc(c1)-c1cnn3ccc(nc13)NCCN(C1CCOCC1)CCO2 [Compound F82]
  remaining activity at 0.1 µM: < 50%
  remaining activity at 1 µM: < 50%
  IC50: < 100 nM

## CCC(C)N1CCNc2ccn3ncc(c3n2)-c2cc(F)cc(c2)OCC1 (stereo not shown) [Compound F83]
  remaining activity at 0.1 µM: < 50%
  remaining activity at 1 µM: < 50%
  IC50: < 100 nM

## Fc1cc2cc(c1)-c1cnn3ccc(nc13)NCCN(C1CCC3(CC1)OCCO3)CCO2 [Compound F84]
  remaining activity at 0.1 µM: < 50%
  remaining activity at 1 µM: < 50%
  IC50: 100 to 1000 nM

## COCCN1CCCNc2ccn3ncc(c3n2)-c2cc(F)cc(c2)OCC1 [Compound F86]
  remaining activity at 0.1 µM: < 50%
  remaining activity at 1 µM: < 50%
  IC50: < 100 nM

## COCCN1CCCOc2cc(F)cc(c2)-c2cnn3ccc(nc23)NCC1 [Compound F87]
  remaining activity at 0.1 µM: < 50%
  remaining activity at 1 µM: < 50%
  IC50: < 100 nM

## COCCN1CCCNc2ccn3ncc(c3n2)-c2cc(Cl)cc(c2)OCC1 [Compound F88]
  remaining activity at 0.1 µM: < 50%
  remaining activity at 1 µM: < 50%
  IC50: < 100 nM

## CC1(C)CCCC(N2CCNc3ccn4ncc(c4n3)-c3cc(F)cc(c3)OCC2)C1 (stereo not shown) [Compound F89]
  remaining activity at 0.1 µM: < 50%
  remaining activity at 1 µM: < 50%
  IC50: 100 to 1000 nM

## NC(=O)c1cc2cc(c1)-c1cnn3ccc(nc13)NCCN(C1COC1)CCO2 [Compound F91]
  remaining activity at 0.1 µM: < 50%
  remaining activity at 1 µM: < 50%
  IC50: < 100 nM

## CCCCN1CCNc2ccn3ncc(c3n2)-c2cc(cc(C(N)=O)c2)OCC1 [Compound F92]
  remaining activity at 0.1 µM: < 50%
  remaining activity at 1 µM: < 50%
  IC50: < 100 nM

## CC1CNc2ccn3ncc(c3n2)-c2cccc(c2)OCC(=O)N1 (stereo not shown) [Compound F105]
  remaining activity at 0.1 µM: > 50%
  remaining activity at 1 µM: < 50%
  IC50: 100 to 1000 nM

## O=C1COc2cncc(c2)-c2cnn3ccc(nc23)NCCCN1 [Compound F106]
  IC50: 100 to 1000 nM

## CC1CNCCOc2cccc(c2)-c2cnn3ccc(nc23)N1 (stereo not shown) [Compound F108]
  IC50: 100 to 1000 nM
